Data set [1] concerns the target T1, Protein deacetylase HDAC6 (Homo sapiens, UniProt Q9UBN7).
T1 sequence (Q9UBN7 whole entry): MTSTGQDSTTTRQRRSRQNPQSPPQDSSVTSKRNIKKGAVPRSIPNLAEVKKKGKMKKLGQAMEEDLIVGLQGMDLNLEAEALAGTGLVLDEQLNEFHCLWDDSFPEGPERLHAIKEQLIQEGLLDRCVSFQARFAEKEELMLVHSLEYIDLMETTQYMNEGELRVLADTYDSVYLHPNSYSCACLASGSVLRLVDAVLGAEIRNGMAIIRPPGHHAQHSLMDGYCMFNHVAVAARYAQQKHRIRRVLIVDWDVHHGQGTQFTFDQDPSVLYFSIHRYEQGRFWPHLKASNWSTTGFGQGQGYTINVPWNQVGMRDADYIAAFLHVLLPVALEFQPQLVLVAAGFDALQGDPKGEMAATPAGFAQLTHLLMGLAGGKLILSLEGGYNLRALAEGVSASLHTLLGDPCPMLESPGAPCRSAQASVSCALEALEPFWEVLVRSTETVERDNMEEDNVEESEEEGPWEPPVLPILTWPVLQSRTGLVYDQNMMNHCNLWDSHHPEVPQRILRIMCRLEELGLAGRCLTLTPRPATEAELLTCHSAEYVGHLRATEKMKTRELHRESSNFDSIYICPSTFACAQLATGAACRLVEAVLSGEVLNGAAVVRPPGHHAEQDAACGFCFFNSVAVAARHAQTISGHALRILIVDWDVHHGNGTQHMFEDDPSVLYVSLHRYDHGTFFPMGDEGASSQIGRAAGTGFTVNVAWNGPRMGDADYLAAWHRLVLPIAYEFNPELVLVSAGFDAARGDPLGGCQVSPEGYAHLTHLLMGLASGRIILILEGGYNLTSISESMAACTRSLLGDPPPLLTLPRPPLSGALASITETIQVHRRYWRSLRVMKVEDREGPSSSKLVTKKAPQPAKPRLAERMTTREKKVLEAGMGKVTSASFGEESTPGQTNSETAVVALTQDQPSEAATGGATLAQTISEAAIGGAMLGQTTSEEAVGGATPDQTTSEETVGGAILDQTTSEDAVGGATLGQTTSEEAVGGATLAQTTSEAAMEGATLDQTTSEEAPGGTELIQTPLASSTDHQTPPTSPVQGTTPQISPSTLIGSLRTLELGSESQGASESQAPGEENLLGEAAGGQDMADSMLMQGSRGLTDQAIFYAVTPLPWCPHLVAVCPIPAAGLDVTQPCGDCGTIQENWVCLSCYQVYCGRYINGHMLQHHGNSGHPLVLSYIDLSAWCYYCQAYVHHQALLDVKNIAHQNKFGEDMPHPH
As to the kind of experiment: Inhibition of HDAC6 (unknown origin).

Data set [2] in a line: Solubility of the compound. The class given is physicochemical.
A further data set deals with Histone deacetylase 1 (Homo sapiens, UniProt Q13547). Description: Binding affinity to HDAC1 in human MDA-MB-231 cells assessed as increase in thermal stability at 10 uM measured at 6 hrs by CETSA. The class given is cell-based.
The target in data set [3] is T2, Histone deacetylase 2 (Homo sapiens, UniProt Q92769). Description: Binding affinity to HDAC2 in human MDA-MB-231 cells assessed as increase in thermal stability at 10 uM measured at 6 hrs by CETSA. The class given is cell-based.
A further data set addresses Histone deacetylase 3 (Homo sapiens, UniProt O15379). As to the kind of experiment: Binding affinity to HDAC3 in human MDA-MB-231 cells assessed as increase in thermal stability at 10 uM measured at 6 hrs by CETSA. The class given is cell-based.
Data set [4] addresses T3, Protein deacetylase HDAC6 (Homo sapiens) (UniProt Q9UBN7).
T3 sequence (whole entry): T1 sequence (Q9UBN7 whole entry)
Description: Binding affinity to HDAC6 in human MDA-MB-231 cells assessed as increase in thermal stability at 10 uM measured at 6 hrs by CETSA. The class given is cell-based.

In data set [5] the test system is MDA-MB-231. As to the kind of experiment: Antiproliferative activity against human MDA-MB-231 cells assessed as inhibition of clone formation at 2.5 to 10 uM. The class given is functional, cell-based. The settings on record: dose 2.5-10 µM.
Data set [6] has as its target T2, Histone deacetylase 2. As to the kind of experiment: Inhibition of HDAC2 (unknown origin).
Data set [7] addresses T3, Protein deacetylase HDAC6 (Homo sapiens). As to the kind of experiment: Inhibition of HDAC6 in human MDA-MB-231 cells assessed as accumulation of acetylated tubulin at 5 to 20 uM by Western blot analysis. The class given is cell-based. The settings on record: dose 5-20 µM.
For data set [8] the target is unchanged. As to the kind of experiment: Inhibition of HDAC6 in human MDA-MB-231 cells assessed as increase in acetylated lysine at 5 to 20 uM by Western blot analysis. The class given is cell-based. The settings on record: dose 5-20 µM.
Data set [9] has as its target Serine/threonine-protein kinase mTOR (Homo sapiens, UniProt P42345). Description: Inhibition of mTOR in human MDA-MB-231 cells assessed as decrease in p70s6k phosphorylation at […] residue at 5 to 20 uM by Western blot analysis. The class given is cell-based. The settings on record: dose 5-20 µM.
In data set [10] the test system is MDA-MB-231. As to the kind of experiment: Induction of autophagy in human MDA-MB-231 cells transfected with GFP-LC3 assessed as accumulation of LC3 puncta at 5 to 20 uM after 48 hrs by Western blot analysis. The class given is functional, cell-based. The settings on record: dose 5-20 µM.
For data set [11], the system named is MDA-MB-231. Description: Induction of autophagy in human MDA-MB-231 cells transfected with GFP-LC3 assessed as increase in Beclin 1 level at 5 to 20 uM after 48 hrs by Western blot analysis. The class given is functional, cell-based. The settings on record: dose 5-20 µM.
For data set [12], the system named is MDA-MB-231. Description: Induction of apoptosis in human MDA-MB-231 cells by annexin V/propidium iodide staining-based flow cytometry analysis. The class given is functional, cell-based. The settings on record: dose 5-20 µM.
The subject of data set [13] is MDA-MB-231. Description: Induction of apoptosis in human MDA-MB-231 cells assessed as live cells at 5 uM by annexin V/propidium iodide staining-based flow cytometry analysis (reference value: 96.7 %). The class given is functional.
The test system of data set [14] is MDA-MB-231. Description: Induction of apoptosis in human MDA-MB-231 cells assessed as necrotic cells at 5 uM by annexin V/propidium iodide staining-based flow cytometry analysis (reference value: 0.099 %). The class given is functional.
Data set [15] has as its system MDA-MB-231. As to the kind of experiment: Induction of apoptosis in human MDA-MB-231 cells assessed as live cells at 10 uM by annexin V/propidium iodide staining-based flow cytometry analysis (reference value: 96.7 %). The class given is functional.
The subject of data set [16] is MDA-MB-231. As to the kind of experiment: Induction of apoptosis in human MDA-MB-231 cells assessed as necrotic cells at 10 uM by annexin V/propidium iodide staining-based flow cytometry analysis (reference value: 0.099 %). The class given is functional.
For data set [17], the system named is MDA-MB-231. Description: Induction of apoptosis in human MDA-MB-231 cells assessed as increase in PARP cleavage at 5 to 20 uM by Western blot analysis. The class given is functional, cell-based. The settings on record: dose 5-20 µM.
In data set [18] the test system is MDA-MB-231. As to the kind of experiment: Induction of apoptosis in human MDA-MB-231 cells assessed as increase in caspase 3 cleavage at 5 to 20 uM by Western blot analysis. The class given is functional, cell-based. The settings on record: dose 5-20 µM.
The test system of data set [19] is MDA-MB-231. Description: Induction of apoptosis in human MDA-MB-231 cells assessed as increase in caspase 8 cleavage at 5 to 20 uM by Western blot analysis. The settings on record: dose 5-20 µM. The class given is functional, cell-based.
Data set [20] has as its system MDA-MB-231. Description: Inhibition of cell migration in human MDA-MB-231 cells after 48 hrs by transwell assay. The class given is functional, cell-based. The settings on record: dose 5-20 µM.
The test system of data set [21] is MDA-MB-231. Description: Inhibition of cell migration in human MDA-MB-231 cells assessed as decrease in MMP-2 expression at 5 to 20 uM after 48 hrs by Western blot analysis. The class given is functional, cell-based. The settings on record: dose 5-20 µM.
In data set [22] the test system is MDA-MB-231. As to the kind of experiment: Inhibition of cell migration in human MDA-MB-231 cells assessed as increase in E-cadherin expression at 5 to 20 uM after 48 hrs by Western blot analysis. The class given is functional, cell-based. The settings on record: dose 5-20 µM.

pIC50: −log10 of the molar value. Activity calls are given as the source filed them. The rule behind the calls is not given here.

T2 sequence (Q92769 whole entry): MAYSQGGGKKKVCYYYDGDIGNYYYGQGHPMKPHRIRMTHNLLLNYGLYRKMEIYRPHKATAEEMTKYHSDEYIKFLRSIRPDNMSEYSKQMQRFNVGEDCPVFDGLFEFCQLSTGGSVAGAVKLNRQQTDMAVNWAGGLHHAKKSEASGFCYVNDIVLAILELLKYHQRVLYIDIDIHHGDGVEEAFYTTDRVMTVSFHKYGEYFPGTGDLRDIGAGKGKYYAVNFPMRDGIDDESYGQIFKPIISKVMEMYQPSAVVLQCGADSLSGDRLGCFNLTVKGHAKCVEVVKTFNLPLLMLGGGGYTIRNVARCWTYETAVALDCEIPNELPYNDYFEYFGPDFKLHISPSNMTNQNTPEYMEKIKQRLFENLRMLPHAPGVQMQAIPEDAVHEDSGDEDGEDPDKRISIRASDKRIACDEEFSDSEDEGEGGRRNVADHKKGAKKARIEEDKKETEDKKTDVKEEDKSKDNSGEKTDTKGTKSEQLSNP
Chain of Histone deacetylase 3 (O15379 whole entry): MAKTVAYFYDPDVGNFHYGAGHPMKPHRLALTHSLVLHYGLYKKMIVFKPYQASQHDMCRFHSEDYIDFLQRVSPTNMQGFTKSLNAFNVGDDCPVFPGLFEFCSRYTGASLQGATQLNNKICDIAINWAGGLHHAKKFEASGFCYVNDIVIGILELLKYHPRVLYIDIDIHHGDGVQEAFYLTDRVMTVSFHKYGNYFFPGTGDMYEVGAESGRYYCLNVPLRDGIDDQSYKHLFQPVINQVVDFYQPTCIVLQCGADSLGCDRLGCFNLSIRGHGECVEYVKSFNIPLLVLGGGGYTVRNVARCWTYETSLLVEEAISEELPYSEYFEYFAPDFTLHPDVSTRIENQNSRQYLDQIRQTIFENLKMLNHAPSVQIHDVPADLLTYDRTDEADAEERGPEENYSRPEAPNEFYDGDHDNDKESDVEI
Chain of Histone deacetylase 1 (Q13547 whole entry): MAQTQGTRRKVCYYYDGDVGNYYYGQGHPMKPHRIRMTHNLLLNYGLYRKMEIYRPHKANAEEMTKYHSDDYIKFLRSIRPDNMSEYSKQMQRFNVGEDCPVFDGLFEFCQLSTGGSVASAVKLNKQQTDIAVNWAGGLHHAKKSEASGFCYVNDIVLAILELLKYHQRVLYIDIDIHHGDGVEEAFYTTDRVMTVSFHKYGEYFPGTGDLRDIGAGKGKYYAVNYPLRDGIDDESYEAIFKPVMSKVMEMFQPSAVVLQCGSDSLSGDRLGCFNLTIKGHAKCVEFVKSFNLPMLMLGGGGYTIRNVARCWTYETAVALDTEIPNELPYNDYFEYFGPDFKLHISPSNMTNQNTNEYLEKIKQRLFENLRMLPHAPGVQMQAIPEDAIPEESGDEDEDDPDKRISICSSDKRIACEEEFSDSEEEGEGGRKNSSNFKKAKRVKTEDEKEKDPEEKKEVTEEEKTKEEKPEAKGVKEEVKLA

On to `CN1CCN(c2nc(-c3ccc(C(=O)NO)cc3)nc3cc(Cl)ccc23)CC1`, for which the pIC50 in data set [1] is 7.25; at Histone deacetylase 2 [6] it was 6.43. Besides, the solubility entry in data set [2] is on record as “Insoluble”. In addition, the result at Histone deacetylase 1, on Histone deacetylase 2 [3] and at Histone deacetylase 3 was inactive. In addition, the result (in [4]; in the data set on MDA-MB-231 [10]; with MDA-MB-231 [11]; in the data set with MDA-MB-231 [17]; with MDA-MB-231 [18]; in the data set with MDA-MB-231 [19]) was Active. For the same compound, the inhibition result (in the data set with MDA-MB-231 [5]; in [7]; in data set [8]; in [9]; in the data set with MDA-MB-231 [20]; in the data set with MDA-MB-231 [21]) was “Active” each time. Moreover, the inhibition entry with MDA-MB-231 [22] is “Active”. Also, the Activity entry is “Dose-Dependent Effect” in the data set on MDA-MB-231 [12]; 88.1% with MDA-MB-231 [13]; 0.64% with MDA-MB-231 [14]; 69.1% with MDA-MB-231 [15]; 0.49% in the data set with MDA-MB-231 [16].

These data come from ChEMBL document CHEMBL4811304, “Design, synthesis and biological evaluation of dual mTOR/HDAC6 inhibitors in MDA-MB-231 cells” (Bioorg Med Chem Lett, 2021).
